Structures are written as SMILES.

A short description of one data set: logP by HPLC on reversed-phase column (C 18), EEC Directive 79/831 Annex V.A8. In kind it is physicochemical. The settings on record: HPLC, 0.1% aqueous formic acid and acetonitrile, 40° C.; pH 2.3. The method, then: Temperature: 40° C.; Mobile phases: 0.1% aqueous formic acid and acetonitrile; linear gradient from 10% acetonitrile to 90% acetonitrile.
`CCN(C)C=Nc1cc(C)c(Oc2ccnc(Oc3cccc(C)c3)n2)cc1C` [Compound 79] showed a logPa of 2.02.
The molecule `Cc1cccc(Oc2nccc(Oc3cc(C)c(N=CN4CCCCC4)cc3C)n2)c1` [Compound 80] returned a logPa of 2.16.
On the same count and under the same terms, the same measure for `CCN(C)C=Nc1cc(C)c(Oc2ccnc(Oc3ccc(Cl)cc3)n2)cc1C` [Compound 81]: 2.11; for `Cc1cc(Oc2ccnc(Oc3ccc(Cl)cc3)n2)c(C)cc1N=CN1CCCCC1` [Compound 82]: 2.18.
Molecule `CCc1ncnc(Oc2cc(C)c(N=CN(C)CC)cc2C)c1Cl` [Compound 83] yielded a logPa of 1.91.
In turn, `CCCN(C)C=Nc1cc(C)c(Oc2ncnc(CC)c2Cl)cc1C` [Compound 84] yielded a logPa of 1.99.
In turn, `CCc1ncnc(Oc2cc(C)c(N=CN3CCCCC3)cc2C)c1Cl` [Compound 85] registered a logPa of 1.98.
The molecule `CCc1ncnc(Oc2cc(C)c(N=CN3CCCC3)cc2C)c1Cl` [Compound 86] yielded a logPa of 1.87.
Molecule `CCN(C)C=Nc1cc(C)c(Oc2ccnc(Oc3ccc(C(F)(F)F)cc3)n2)cc1C` [Compound 87] had a logPa of 2.37.
Take `Cc1cc(Oc2ccnc(Oc3ccc(C(F)(F)F)cc3)n2)c(C)cc1N=CN1CCCCC1` [Compound 88]: the logPa is listed as 2.49.
Take `CCN(C)C=Nc1cc(C)c(Oc2ncc(Cl)c(N(C)CC)n2)cc1C` [Compound 89, N′-[4-({5-chloro-4-[ethyl(methyl)amino]pyrimidin-2-yl}oxy)-2,5-dimethyl-phenyl]-N-ethyl-N-methylimidoformamide]: the logPa is recorded as 1.82.
Molecule `CCN(C)C=Nc1cc(C)c(Oc2ncc(C)c(C)n2)cc1C` [Compound 93] gave a logPa of 1.19.
`CCCN(C)C=Nc1cc(C)c(Oc2ncc(C)c(C)n2)cc1C` [Compound 94] returned a logPa of 1.4.
On to `CCN(C)C=Nc1cc(C)c(Oc2ncc(Cl)cn2)cc1C` [Compound 95], for which the logPa is listed as 1.32.
For the molecule `CCCN(C)C=Nc1cc(C)c(Oc2ncc(Cl)cn2)cc1C` [Compound 96], the logPa was determined as 1.48.
`Cc1cc(Oc2ncc(Cl)cn2)c(C)cc1N=CN(C)C(C)C` [Compound 97] showed a logPa of 1.41.
With `CCCN(C)C=Nc1cc(C)c(Oc2nccc(C(F)(F)F)n2)cc1C` [Compound 98], the logPa was found to be 1.7.
`CCN(C)c1nc(Oc2cc(C)c(N=CN(C)C(C)C)cc2C)ncc1Cl` [Compound 99] displayed a logPa of 1.98.
In the case of `CCCN(C)C=Nc1cc(C)c(Oc2ncc(Cl)c(N(C)CC)n2)cc1C` [Compound 100], the logPa amounted to 1.95.
Molecule `CCN(C)c1nc(Oc2cc(C)c(N=CN3CCCCC3)cc2C)ncc1Cl` [Compound 101] gave a logPa of 1.93.
`CCN(C)C=Nc1cc(C)c(Oc2nccc(Oc3ccccc3)n2)cc1C` [Compound 102] showed a logPa of 1.82.
`CCN(C)C=Nc1cc(C)c(Oc2nccc(Oc3cccc(Cl)c3)n2)cc1C` [Compound 103] returned a logPa of 2.13.

The data set is the same for the next values; noted with them: measured at pH = 4 (footnote a).
With `CCN(C)C=Nc1cc(C)c(Oc2nccc(C(F)(F)F)n2)cc1C` [Compound 90], the logPa is on record as 0.22^a.
Consider `CCN(C)C=Nc1cc(C(C)C)c(Oc2nccc(C(F)(F)F)n2)cc1C` [Compound 92], for which the logPa is listed as 1.10^a.

Staying with this data set, now noted: reversed-phase C18 HPLC column; pH 2.3; value in preparation example text; read-out: log P (pH 2.3).
Regarding `CCN(C)C=Nc1cc(C)c(Oc2ncc(Cl)c(N(C)CC)n2)cc1C` [Compound 89, N′-[4-({5-chloro-4-[ethyl(methyl)amino]pyrimidin-2-yl}oxy)-2,5-dimethyl-phenyl]-N-ethyl-N-methylimidoformamide], the chromatographic logP was determined as 1.82.
As to `Cc1cc(Oc2ccnc(N(C)c3ccccc3)n2)c(C)cc1N` [[4-(4-Amino-2,5-dimethyl-phenoxy)-pyrimidin-2-yl]-methyl-phenyl-amine], the chromatographic logP was 1.72.

The values are drawn from US7727986B2, “Pesticide pyrimidinyloxy substituted phenylamidine derivatives” (Bayer CropScience AG, priority 2005, dated 2010).
